Values after ≈ are worked out from the molar mass of the structure shown.
Assays:
E. coli containing KPC-2 = assay: MIC by broth microdilution, E. coli containing KPC-2 (Ec KPC2 Iso); assay type: cell-based; conditions: Escherichia coli, read-out: Ec KPC2 Iso (MIC), E. coli containing KPC-2 (carbapenemase from Klebsiella pneumoniae)
Method: (§1) Bacterial isolates were cultivated from −70° C. frozen stocks by two consecutive overnight passages at 35° C. in ambient air on 5% blood agar (Remel, Lenexa, Kans.). Quality control and P. aeruginosa ATCC 27853) is from the American Type Culture Collection (ATCC; Rockville, Md.) and PAO1 was received from Dr. K. Poole.
Strain NB27273 (BW25113 pspB::Km^r) was obtained from the Keio transposon insertion collection. The strain has the pspB gene replaced by a kanamycin resistance marker (BW25113 pspB::Km^r). This strain was cured of the transposon in pspB via FLP recombinase using published methodology. The resulting strain, BW25113 pspB, was used as a host for multicopy vectors expressing key β-lactamases. Multicopy plasmids directing constitutive expression of β-lactamases were established as follows: Synthetic, codon optimized genes encoding E. coli KPC2 and SHV12 β-lactamases were made by DNA2.0 (Palo Alto, Calif.). Each of the synthetic fragments were designed to contain NotI and NcoI restriction sites at their termini, allowing ligation into a NotI/NcoI digested pET28a(+) derivative for protein expression. […] The codon optimized nucleotide sequences and relevant primer recognition information is shown below:
The PCR products were then digested with XhoI and EcoRI and ligated into similarly digested plasmid pAH63-pstS(BlaP). Plasmid pAH63-pstS(BlaP) is a derivative of plasmid pAH63 (J Bacteriol: 183(21): 6384-6393) made by cloning the TEM-1 (bla) promoter and signal peptide encoding region from plasmid pBAD (J Bacteriol. 1995 July 177(14):4121-30) into plasmid pAH63. This fragment was PCR amplified from pBAD using primer pair E192 (ttca[…]) (SEQ ID NO:13) and E194 ([…]) (SEQ ID NO:14), digested with PstI and BamHI and inserted into similarly digested plasmid pAH63. Therefore, expression of β-lactamases from pAH63-pstS(BlaP) based constructs is constitutive and the signal sequence is provided to direct these proteins to the periplasm. Plasmid pAH63 based vectors are used for insertion into the genome in single copy, however, to provide higher expression levels to allow more sensitive detection of the susceptibility of compounds to the β-lactamases, the expression inserts contained in these vectors were moved to the replicative multicopy vector pBAD-Kan (J Bacteriol. 1995 July 177(14):4121-30). To accomplish this, the inserts encompassing the β-lactamase genes, with the associated TEM promoter and signal sequences, were PCR amplified from their corresponding vectors using primer E269 (ccg[…]) (SEQ ID NO:15) and E202 (aatc[…]) (SEQ ID NO:16) for the KPC2 construct and E204 (aatc[…]) (SEQ ID NO:17) for the SHV12 construct. These fragments were then digested with XbaI and EcoRI, and each was inserted into pBAD18-kan that had been digested with the same enzymes to generate a pair of multicopy vectors expressing KPC2 and SHV12 respectively. These vectors were transformed into BW25113 pspB to generate strains NB27273-CDY0033 (expressing KPC2) and NB27273-CDY0030 (expressing SHV12). The pBAD18-kan vector also contains the TEM promoter region and signal sequence, (but lacks any intact β-lactamase genes) and was transformed into BW25113 pspB using standard protocols to generate the control strain NB27273-CDY0026. Expression of the β-lactamases was confirmed by verifying decreased susceptibility to example test antibiotics that are known substrates of KPC2 or SHV12. Susceptibility Testing
Minimal Inhibitory Concentrations (MICs) were determined by the broth microdilution method in accordance with Clinical and Laboratories Institute (CLSI) guidelines. In brief, fresh overnight bacterial cultures were suspended in sterile saline, and adjusted to a 0.5 McFarland turbidity standard. Bacterial suspensions were then diluted in cation adjusted Mueller-Hinton Broth (MHB II; BBL) to yield a final inoculum of approximately 5×10^5 colony-forming units (CFU)/mL. […]

E. coli strain 25922 = assay: MIC by broth microdilution, E. coli strain 25922; assay type: cell-based; conditions: Escherichia coli, 25922, E. coli strain 25922; read-out: Ec 25922 (MIC)
Method: as §1
Minimal Inhibitory Concentrations (MICs) were determined by the broth microdilution method in accordance with Clinical and Laboratories Institute (CLSI) guidelines. In brief, fresh overnight bacterial cultures were suspended in sterile saline, and adjusted to a 0.5 McFarland turbidity standard. Bacterial suspensions were then diluted in cation adjusted Mueller-Hinton Broth (MHB II; BBL) to yield a final inoculum of approximately 5×10^5 colony-forming units (CFU)/mL. A master plate of antibiotics was prepared at a concentration equivalent to hundred-fold the highest desired final concentration in 100% dimethyl sulfoxide (DMSO). The master antibiotic plate was then diluted by serial twofold dilution with a multichannel pipette. The resulting dilution series of compounds were diluted 1:10 with sterile water leading to a 10% DMSO final concentration. A volume of 10 μL of the drug dilution series was transferred to 96-well assay plates. Assay plates were inoculated with 90 μL of bacterial suspensions and incubated at 35-37° C. for 20 hrs. The assay plates were read using a microtiter plate reader (Molecular Devices) at 600 nm as well as by visual observation with a reading mirror. The lowest concentration of the compound that prevented visible growth was recorded as the MIC. Performance of the assay was monitored by testing aztreonam against laboratory quality control strains in accordance with guidelines of the CLSI.

Row | SMILES | MIC (E. coli containing KPC-2) [mg/L] | MIC (E. coli strain 25922) [mg/L]
1 | N=C(NCc1cnn(C[C@@H]2[C@H](NC(=O)/C(=N\OC3(C(=O)O)CC3)c3csc(N)n3)C(=O)N2S(=O)(=O)O)n1)NCC1CNC1 [Example 126, 1-(((Z)-(1-(2-aminothiazol-4-yl)-2-(((2R,3S)-2-((4-((3-(azetidin-3-ylmethyl)guanidino)methyl)-2H-1,2,3-triazol-2-yl)methyl)-4-oxo-1-sulfoazetidin-3-yl)amino)-2-oxoethylidene)amino)oxy)cyclopropanecarboxylic acid] | 0.5 (≈ 0.78 µM) | 0.5 (≈ 0.78 µM)
2 | C[C@@H]1CN(C[C@@H]2[C@H](NC(=O)/C(=N\OC(C)(C)C(=O)O)c3csc(N)n3)C(=O)N2S(=O)(=O)O)C(=O)O1 [Example 23, 2-(((Z)-(1-(2-aminothiazol-4-yl)-2-(((2R,3S)-2-(((R)-5-methyl-2-oxooxazolidin-3-yl)methyl)-4-oxo-1-sulfoazetidin-3-yl)amino)-2-oxoethylidene)amino)oxy)-2-methylpropanoic acid] | 1 (≈ 1.87 µM) | 2 (≈ 3.74 µM)
3 | NCc1cnn(C[C@@H]2[C@H](NC(=O)/C(=N\OC3(C(=O)O)CC3)c3csc(N)n3)C(=O)N2S(=O)(=O)O)n1 [Example 19, 1-(((Z)-(2-(((2R,3S)-2-((4-(aminomethyl)-2H-1,2,3-triazol-2-yl)methyl)-4-oxo-1-sulfoazetidin-3-yl)amino)-1-(2-aminothiazol-4-yl)-2-oxoethylidene)amino)oxy)cyclopropanecarboxylic acid] | 0.25 (≈ 0.472 µM) | 0.25 (≈ 0.472 µM)
4 | Cc1ncnn1C[C@@H]1[C@H](NC(=O)/C(=N\OC(C)(C)C(=O)O)c2csc(N)n2)C(=O)N1S(=O)(=O)O [Example 61, 2-(((Z)-(1-(2-aminothiazol-4-yl)-2-(((2R,3S)-2-((5-methyl-1H-1,2,4-triazol-1-yl)methyl)-4-oxo-1-sulfoazetidin-3-yl)amino)-2-oxoethylidene)amino)oxy)-2-methylpropanoic acid] | 2 (≈ 3.87 µM) | 8 (≈ 15.5 µM)
5 | Nc1nc(/C(=N/OC2(C(=O)O)CC2)C(=O)N[C@@H]2C(=O)N(S(=O)(=O)O)[C@@H]2CN2C(=O)COC2=O)cs1 [Example 95, 1-(((Z)-(1-(2-aminothiazol-4-yl)-2-(((2R,3S)-2-((2,4-dioxooxazolidin-3-yl)methyl)-4-oxo-1-sulfoazetidin-3-yl)amino)-2-oxoethylidene)amino)oxy)cyclopropanecarboxylic acid] | 0.125 (≈ 0.235 µM) | 0.25 (≈ 0.47 µM)
6 | N=CNC[C@@H]1CN(C[C@@H]2[C@H](NC(=O)/C(=N\OC3(C(=O)O)CC3)c3csc(N)n3)C(=O)N2S(=O)(=O)O)C(=O)O1 [Example 104, 1-(((Z)-(1-(2-aminothiazol-4-yl)-2-(((2R,3S)-2-(((R)-5-(formimidamidomethyl)-2-oxooxazolidin-3-yl)methyl)-4-oxo-1-sulfoazetidin-3-yl)amino)-2-oxoethylidene)amino)oxy)cyclopropanecarboxylic acid] | > 64 | > 64
7 | N=C(NCCOCCN)NCc1cnn(C[C@@H]2[C@H](NC(=O)/C(=N\OC3(C(=O)O)CC3)c3csc(N)n3)C(=O)N2S(=O)(=O)O)n1 [Example 147, 1-(((Z)-(2-(((2R,3S)-2-((4-((3-(2-(2-aminoethoxy)ethyl)guanidino)methyl)-2H-1,2,3-triazol-2-yl)methyl)-4-oxo-1-sulfoazetidin-3-yl)amino)-1-(2-aminothiazol-4-yl)-2-oxoethylidene)amino)oxy)cyclopropanecarboxylic acid] | 0.5 (≈ 0.759 µM) | 0.5 (≈ 0.759 µM)
8 | N=C(N)NC[C@@H]1CN(C[C@@H]2[C@H](NC(=O)/C(=N\OC3(C(=O)O)CC3)c3csc(N)n3)C(=O)N2S(=O)(=O)O)C(=O)O1 [Example 26, 1-(((Z)-(1-(2-aminothiazol-4-yl)-2-(((2R,3S)-2-(((R)-5-(guanidinomethyl)-2-oxooxazolidin-3-yl)methyl)-4-oxo-1-sulfoazetidin-3-yl)amino)-2-oxoethylidene)amino)oxy)-cyclopropanecarboxylic acid] | ≤ 0.06 | 0.125 (≈ 0.212 µM)
9 | N=C(NCc1cnn(C[C@@H]2[C@H](NC(=O)/C(=N\OC3(C(=O)O)CC3)c3csc(N)n3)C(=O)N2S(=O)(=O)O)n1)N[C@H]1C[C@@H](N)C1 [Example 140, 1-(((Z)-(2-(((2R,3S)-2-((4-((3-((1 s,3S)-3-aminocyclobutyl)guanidino)methyl)-2H-1,2,3-triazol-2-yl)methyl)-4-oxo-1-sulfoazetidin-3-yl)amino)-1-(2-aminothiazol-4-yl)-2-oxoethylidene)amino)oxy)cyclopropanecarboxylic acid] | 0.25 (≈ 0.39 µM) | 0.25 (≈ 0.39 µM)
10 | CC(C)(O/N=C(\C(=O)N[C@@H]1C(=O)N(S(=O)(=O)O)[C@@H]1Cn1ncc(CNS(N)(=O)=O)n1)c1csc(N)n1)C(=O)O [Example 65, 2-(((Z)-(1-(2-aminothiazol-4-yl)-2-oxo-2-(((3S,4R)-2-oxo-4-((4-((sulfamoylamino)methyl)-2H-1,2,3-triazol-2-yl)methyl)-1-sulfoazetidin-3-yl)amino)ethylidene)amino)oxy)-2-methylpropanoic acid] | 64 (≈ 105 µM) | 64 (≈ 105 µM)
11 | NCC1CN(Cc2cnn(C[C@@H]3[C@H](NC(=O)/C(=N\OC4(C(=O)O)CC4)c4csc(N)n4)C(=O)N3S(=O)(=O)O)n2)C1 [Example 92, 1-(((Z)-(2-(((2R,3S)-2-((4-((3-(aminomethyl)azetidin-1-yl)methyl)-2H-1,2,3-triazol-2-yl)methyl)-4-oxo-1-sulfoazetidin-3-yl)amino)-1-(2-aminothiazol-4-yl)-2-oxoethylidene)amino)oxy)cyclopropanecarboxylic acid] | 0.5 (≈ 0.835 µM) | 0.25 (≈ 0.418 µM)
12 | CC(C)(O/N=C(\C(=O)N[C@@H]1C(=O)N(S(=O)(=O)O)[C@@H]1Cn1ncc(CNC(=N)N)n1)c1csc(N)n1)C(=O)O [Example 53, 2-(((Z)-(1-(2-aminothiazol-4-yl)-2-(((2R,3S)-2-((4-(guanidinomethyl)-2H-1,2,3-triazol-2-yl)methyl)-4-oxo-1-sulfoazetidin-3-yl)amino)-2-oxoethylidene)amino)oxy)-2-methylpropanoic acid] | 1 (≈ 1.74 µM) | 1 (≈ 1.74 µM)
13 | CC(C)(O/N=C(\C(=O)N[C@@H]1C(=O)N(S(=O)(=O)O)[C@@H]1CN1CCN=C1N)c1csc(N)n1)C(=O)O [Example 39, 2-(((Z)-(2-(((2R,3S)-2-((2-amino-4,5-dihydro-1H-imidazol-1-yl)methyl)-4-oxo-1-sulfoazetidin-3-yl)amino)-1-(2-aminothiazol-4-yl)-2-oxoethylidene)amino)oxy)-2-methylpropanoic acid] | > 64 | 64 (≈ 123 µM)

Source: patent publication US10369138B2, “Monobactam organic compounds for the treatment of bacterial infections” (Novartis AG, priority 2014, dated 2019)
